Key:
[1] = system: tobacco budworm (Heliothis virescens [Fabricius]); test: surface-treated diet test against tobacco budworm; format: in vivo; settings: 0.25 millimolar on surface of diet, second instar larvae, five-day exposure; for Percent Growth Inhibition: insect weight relative to untreated controls
Description: The test compounds of formula I are identified by numbers that correspond to those in Table 1.

tobacco budworm = test: foliar treated test against tobacco budworm on chick pea plants; format: in vivo, Heliothis virescens; settings: sprayed chick pea foliage, 96 hour exposure, dead plus moribund insects
Procedure: Certain compounds of formula I were tested against tobacco budworm on plant foliage. The foliar treated test against tobacco budworm were conducted in the following manner:
Nine-to-ten day-old chick pea plants (Cicer arietinum) were sprayed at 15 psi to runoff on both upper and lower leaf surfaces with solutions of test compound to provide application rates as high as 1000 ppm of test chemical. The solvent used to prepare the solutions of test compound was 10% acetone or methanol (v/v) and 0.1% of the surfactant octylphenoxypolyethoxyethanol in distilled water. Four replicates, each containing one chick pea plant, for each rate of application of test compound were sprayed. The treated plants were transferred to a hood where they were kept until the spray had dried.
The four chick pea plants for each replicate treated with test compound as described above were removed from their pots by cutting the stems just above the soil line. The excised leaves and stems from the four plants in each replicate were placed in individual 237 mL (8-ounce) paper cups, which contained a moistened filter paper. Five second-instar tobacco budworm (7 days old) were counted into each cup, taking care not to cause injury. An opaque plastic lid was placed on each cup, which was then held in a growth chamber for a 96 hour exposure period at 25° C. 50% relative humidity and photo-period of 12 hours light and 12 hours dark. At the end of the 96 hour exposure period the cups were opened, and the numbers of dead, moribund, and live insects were counted. Using the insect counts, the efficacy of the test compound was expressed in percent control. Percent control is derived from the total number of dead insects (TD) plus the total number of moribund insects (TM) as compared to the total number of insects (TI) in the test:
The condition of the test plants was also observed for phytotoxicity and for reduction of feeding damage as compared to an untreated control.

Q: What does the source list for `FC(F)(F)c1nc2ccc(OCCCCOc3c(Cl)cc(OCC=C(Cl)Cl)cc3Cl)cc2o1` [Compound 6, 5-(3,3-dichloroprop-2-enyloxy)-1,3-dichloro-2-{4-[2-(trifluoromethyl)benzoxazol-6-yloxy]butoxy}benzene]?
A: Percent Mortality [1]: 100%; Percent Growth Inhibition [1]: 100%; Percent Control of Tobacco Budworm in a Foliar Test (tobacco budworm; 10 ppm): 70%; Percent Control of Tobacco Budworm in a Foliar Test (tobacco budworm; 30 ppm): 95%

Q: For `FC(F)(F)c1nc2ccc(OCCCOc3c(Cl)cc(OCC=C(Cl)Cl)cc3Cl)cc2o1` [Compound 3, 5-(3,3-dichloroprop-2-enyloxy)-1,3dichloro-2-{3-[2-(trifluoromethyl)benzoxazol-6-yloxy]propoxy}benzene], which “Percent Mortality” value [1] is on record?
A: 100%

Q: What about the “Percent Growth Inhibition” value [1] of the same compound?
A: 100%

Q: What about the “Percent Control of Tobacco Budworm in a Foliar Test” value (“Percent Control of Tobacco Budworm” for short) (tobacco budworm; 10 ppm) of the same compound?
A: 100%

Q: What about the “Percent Control of Tobacco Budworm” value (tobacco budworm; 30 ppm) of the same compound?
A: 100%

Q: Which “Percent Control of Tobacco Budworm” value (tobacco budworm; 10 ppm) does the source give for `CC1(C)Oc2ccc(OCCCCOc3c(Cl)cc(OCC=C(Cl)Cl)cc3Cl)cc2O1` [Compound 4] here?
A: 15%

Q: What about the “Percent Control of Tobacco Budworm” value (tobacco budworm; 30 ppm) of the same compound?
A: 55%

Q: With `Cc1nc2cc(OCCCCCOc3c(Cl)cc(OCC=C(Cl)Cl)cc3Cl)ccc2s1` [Compound 12, 5-(3,3-dichloroprop-2-enyloxy)-1,3-dichloro-2-[5-(2-methylbenzothiazol-5-yloxy)pentyloxy]benzene] as the compound, how does the “Percent Mortality” value [1] read?
A: 100%

Q: And the “Percent Growth Inhibition” value [1]?
A: 100%

Q: And the “Percent Control of Tobacco Budworm” value (tobacco budworm; 10 ppm)?
A: 15%
